Laboratory results: patent US20220288051A1, “METHODS FOR TREATING CANCER USING SERIAL ADMINISTRATION OF E3 UBIQUITIN LIGASE DEGRADERS” (Dana-Farber Cancer Institute, Inc., priority 2019, published 2022)

Key:
MM = details: cited from earlier work
c-Myc = test: Immunoblotting of degronimid-treated MM.1S cells: c-Myc; assay type: cell-based, human; details: 0.01-1 μM, 4 h
Experimental: MM.1S cells were seeded in 6-well plates at 3×10^6 cells/well (˜24 h prior to addition of drug). […] Cell pellets were thawed on ice, lysed using RIPA buffer (ThermoFisher) with protease/phosphatase inhibitor cocktail (Cell Signal Technology, Danvers, Mass.) by incubating on ice 30 min. The lysates were clarified by spinning at 10,000 g for 10 min at 4° C. and the concentration of the lysate was determined using BCA protocol (ThermoFisher). Samples were prepared for Western blot using LDS sample buffer (NuPage, Invitrogen, Carlsbad, Calif., USA) with sample reducing agent (NuPage, Invitrogen) and heated to 95° C. for 5 min. Samples were loaded (20 ug/sample) into Tris-acetate or Bis-Tris gels (NuPage, Invitrogen) and run as per kit instructions using appropriate running buffers. Gels were transferred as described (Matthews et al., 2015) onto PVDF membrane using SDS-based transfer buffer (NuPage, Invitrogen). Membranes were blocked (5% skim milk; or 5% bovine serum albumin in TBS-T) for at least 30 min then probed with primary antibodies overnight (4° C.). […] Each protein of interest (BRD2, BRD3, BRD4, c-myc and CDK9) was assessed in a separate gel and corresponding membrane (which was simultaneously incubated with antibodies for both the target protein of interest and GAPDH, to provide a loading control within the same blot). […]

MM.1S cells = test: CTG viability of CRISPR-edited MM.1S pools tolerant to bortezomib or JQ1; assay type: cell-based, human; details: after genome-scale gene editing and treatment with JQ1 (500 nM) or bortezomib (25 nM)
Experimental: Cell viability and growth of human MM cell lines were assessed using CellTitre-Glo (CTG) assay (Promega, Madison, Wis.) per kit instructions, or CS-BLI as described (Delmore et al., 2011). Briefly, cells were seeded (5×10^3 cells/well) into 96- or 384-well opaque plates, in supplemented media (40 or 50 uL) and incubated for 24 h prior to addition of drug. For co-culture experiments, HS27A cells were pre-seeded (5×10^3 cells/well) into each well in media prior (24 h) to the addition of MM cells. At each time point (24 h, 48 h, and/or 72 h) CTG reagent (10% volume) was added to each well, and plates were read using a microplate reader (BioTek Synergy 2, BioTek, Winooski, Va.).
(§1) iii. […] Following treatments, all cells were serially cultured without drug and allowed to regrow for as long as required to enable reseeding (60×10^6 cells per flask, 100 mL) and retreatment with individual drugs while maintaining ˜1000× coverage throughout. Concomitant with retreatment, remaining cells were frozen (−80° C.; 20% FBS/DMSO) for later analysis or assessed for drug resistance/sensitivity using CTG assays. Between treatments, and in order to maintain the health of cultures, dead cells were periodically removed using Ficoll centrifugation (1,500 rpm for 10-20 min). For all CRISPR drug treatment experiments, aliquots of MM.1S-Cas9+ cells transduced with the GeCKO(Sanjana et al., 2014; Shalem et al., 2014) or Brunello (Doench et al., 2016) sgRNA libraries were frozen immediately prior to experimentation to determine the baseline distribution of sgRNAs in the cell population.

pools of MM cells = test: Sequential exposure to CRBN- and VHL-based degraders, CTG; assay type: cell-based, human; details: compared to treatment-naïve cells
Excerpt: We addressed this question using pools of MM cells derived from several of our genome-scale CRISPR-based screens.

MM.1S Cas9+ cells = test: Dose-response assay of cells with individual sgRNA knock-outs, CTG; assay type: cell-based, human; details: compared to parental MM.1S cells
Experimental: Non-targeting control sgRNAs and COPS7B sgRNAs were from GeCKOv2. Four sgRNAs were generated per each gene, except from COPS7B, for which 6 sgRNAs were available (Table S2). All sgRNAs were synthesized by CustomArray Inc (Bothell, Wash.). Cloning was performed according to the protocol published by Zhang et al. (media.addgene.org/cms/filer_public/4f/ab/4fabc269-56e2-4ba5-92bd-09dc89c1e862/zhang_lenticrisprv2_and_lentiguide_oligo_cloning_protocol_1.pdf) using a pHKO9 vector. Briefly, to clone the sgRNA guide sequence, plasmids were digested with BsmBI (New England Biolabs, Ipswich, Mass.) at 55° C. for 1 hour. Oligonucleotides for each sgRNA guide sequence were annealed and phosphorylated using T4 Ligation Buffer and T4 polynucleotide kinase (New England Biolabs) at 37° C. for 30 minutes and then annealed by heating to 95° C. for 5 minutes and cooling to 25° C. at 1.5° C./minute. Using T4 ligation buffer and T4 ligase (New England Biolabs), annealed oligos were ligated into gel purified vectors (Qiagen) at 65° C. for 10 minutes. 2.5 ug of the ligation product were transformed in 30 uL E. coli electrocompetent cells (Lucigen E.cloni 10 G ELITE PLUS, Invitrogen). Subsequently, 500 uL of transformed cells were plated on LB Agar-AmpR (ThermoFisher Scientific) and incubated overnight at 37° C. Three colonies per plate were then picked and inoculated in a mini-prep culture (Qiagen). The product was then digested with BsmBI and XhoI (New England Biolabs) at 37° C. for 1 h and compared to the uncut control on 1% agarose gel. One out of three colonies (10 uL) was then precultured in 3 mL LB Broth-AmpR and shaken at 37° C. for 6 h. Afterwards it was transferred to a 250 mL LB Broth-AmpR flask and incubated overnight at 37° C. Each culture was then inoculated into a maxiprep culture (Qiagen).
Also, CRBN, VHL, TCEBJ, TCEB2, UBE2R2 and FBXW2 sgRNA are selected from Brunello library and cloned using pLVX-hyg-sgRNA1 Vector system (Takara Bio USA, CA) according to the manufacturer's manual. b(takarabio.com/assets/documents/User %20Manual/Lenti-X_CRISPR-Cas9_System_User_Manual_121316.pdf)
ii. Lentiviral transductions with constructs for individual sgRNAs: 500×10^3 to 1×10^6 MM.1S Cas9 cells were plated in 50 uL of complete RPMI1640 medium per well in a 24-well plate, and additional 100 uL of complete RPMI1640 medium were added to cover the well completely. Cells were incubated in cell medium containing polybrene (5 to 8 μg/mL; Santa Cruz Biotechnology), and viral prep. 24 hours after addition of viral preps, media were changed and, after another 48 h, puromycin selection (1 to 2 ug/ml per well) was started. After 7 days of puromycin selection, transduced MM.1S Cas9+ cells were collected and expanded in T75 flasks.
iii. […] In the case of Thal-SNS-032 or ARV771, cells are plated 384-well plate and treated each concentration described at figure and viability assays were performed at 72 hrs.

MM.1S-Cas9+ cells = test: Genome-scale CRISPR/Cas9 gene editing (LOF) resistance screens; assay type: cell-based, human; details: long-term treatment; NGS of sgRNAs
Experimental: MM.1S cells transduced with lentiviral construct for SpCas9 were kindly provided from Quinlan Sievers (Ebert Lab, BWH/DFCI). MM.1S cells were also transduced with lentiviral construct for dCas9-VP64 (purchased from Addgene).
ii. Lentiviral transductions with sgRNA libraries: For the screen with the GECKOv2 sgRNA library, tumor cell transductions were performed in batches of 8×10^7 cells per sub-library for each replicate. Cells were incubated for 16 hrs in cell medium containing polybrene (2 μg/mL; Santa Cruz Biotechnology), 10 mM HEPES (pH 7.4) (Sigma-Aldrich) and viral prep (4 mL) diluted to achieve an MOI of 0.4. After the end of the incubation with the viral preps, cells were washed and incubated for an additional day. Transduced cells were cultured at an initial density of 1×10^6 cells/mL and were treated with puromycin (1 μg/mL) for up to 14 days immediately after transduction. After puromycin selection, MM.1S-Cas9^+ cells transduced with each GeCKOv2 sublibrary were plated at 60×10^6 cells per flask (T175, 100 mL) to enable coverage of ˜1000× and were sub-cultured at four to five-day intervals to prevent confluence. At each passage, cells were harvested, washed with PBS (Corning, N.Y.), pelleted (5000 rpm, 5 min, 4° C.) and frozen as cell pellets (−80° C.) for next generation sequencing, and also replated at 60×10^6 cells to maintain 1000× coverage.
For the genome-scale screens with the Brunello sgRNA library, tumor cell transductions were performed in batches of 5×10^7 cells per library for six replicates. Cells were incubated (18 h) in cell medium containing polybrene (5 μg/mL; Santa Cruz Biotechnology), 10 mM HEPES (pH 7.4) (Sigma-Aldrich) and viral prep (30 mL) diluted 1:1. Transduced cells were cultured at an initial density of 1×10^6 cells/mL and were treated with puromycin (1 μg/mL) for up to 5 days additional two days from transduction. After stable transduction, pooled MM.1S cells were plated at 40×10^6 cells per flask (T175, 100 mL) to enable coverage of 500× and were sub-cultured at three- to four day intervals to prevent confluence. At each passage, cells were harvested, washed with PBS (Corning), pelleted (5000 rpm, 5 min, 4° C.) and frozen as cell pellets (−80° C.) for next generation sequencing, and also replated at 40×10^6 cells (˜500× coverage).
as §1
For “long-term” treatment screens with Thal-SNS-032-, ARV-771- and MZ-1-resistant cells, we continuously treated MM.1S-Cas9+ cells (40×10^6, —500× coverage) transduced with the Brunello sgRNA library (4 weeks post-puromycin selection) with either each compound's (IC20) or vehicle control. Cells were serially passaged every 3-4 days to prevent confluence, each time replating at ˜500× coverage (100 mL) at the same time replenishing each compound or vehicle. Drug treatments were paused if cell numbers fell below 10×10^6 per flask, allowing cells to recover and regrow, and treatments were resumed at a lower concentration when cell numbers reached 40×10^6. At each passage, cells were assayed for drug sensitivity/resistance using CTG. […]

SMILES	induction of apoptosis (MM; most cell types tested)	anti-tumor activity (MM; preclinical in vitro and in vivo models of MM)	c-Myc protein levels (c-Myc)	responsiveness of drug-exposed pools to the same agent (MM.1S cells)	shift of dose response curve in pools previously exposed to CRBN-based degraders (pools of MM cells)	response of cells with sgRNAs against COPS7B or COPS8 (MM.1S Cas9+ cells)	sgRNA enrichment in resistant cells, long-term screen (MM.1S-Cas9+ cells)
Cc1sc2c(c1C)C(c1ccc(Cl)cc1)=N[C@@H](CC(=O)OC(C)(C)C)c1nnc(C)n1-2 [JQ1]	does not induce apoptosis in most cell types tested	has anti-tumor activity	less pronounced depletion of c-Myc	decreased responsiveness			
Cc1ncsc1-c1ccc(CNC(=O)[C@@H]2C[C@@H](O)CN2C(=O)[C@@H](NC(=O)COCCOCCOCCNC(=O)C[C@@H]2N=C(c3ccc(Cl)cc3)c3c(sc(C)c3C)-n3c(C)nnc32)C(C)(C)C)cc1 [MZ-1]					limited, if any, shift	decreased response	enrichment of sgRNAs for CUL2, VHL itself
CC(C)C[C@H](NC(=O)[C@H](Cc1ccccc1)NC(=O)c1cnccn1)B(O)O [bortezomib]				decreased responsiveness			
